Results on 2 compounds are retold here after patent US7863235B2, “Method of activating α-amylase with oxidizing agents” (Kao Corporation, priority 2004, dated 2011).

The experiment concerns Duramyl 60T (α-amylase). In words: Activation of Duramyl 60T by types of oxidizing agents (phadebas method). It counts as biochemical. The conditions noted are these: activity of Duramyl 60T (a1) after contact with oxidizing agent powder (b2), ratio 10/1; 25° C., 8 g/m^3, 30 minutes. How it is done: One tablet from Neo, Amylase Test “Daiichi” (product number: 701501-005, available from Daiichi Pure Chemicals Co., Ltd.) was added to 5 mL buffer (Britton-Robinson's Buffer, pH 8.5, 50 mM (Koichi Anan et al., Fundamental Biochemical Experimental Method 6 [in Japanese], p. 277, Maruzen Co., Ltd.)) and stirred for about 10 seconds, then 1 mL enzyme solution diluted with 2 mM aqueous calcium chloride was added, and the mixture was reacted at 50° C. for 15 minutes. 1 mL of 0.5 N aqueous sodium hydroxide was added to the solution under stirring to terminate the reaction, and then the reaction solution was centrifuged (400×g, 5 minutes) to precipitate insoluble components, and the supernatant thus obtained by centrifugation was measured for absorbance at 620 nm.
One tablet from Neo, Amylase Test “Daiichi” was added to 5 mL buffer (Britton-Robinson's Buffer, pH 8.5, 50 mM (Koichi Anan et al., Fundamental Biochemical Experimental Method 6 [in Japanese], p. 277, Maruzen Co., Ltd.)) and stirred for about 10 seconds. […] The supernatant thus obtained by centrifugation was measured for absorbance at 620 nm.
The activity of amylase was calculated from the difference in absorbance between (1) and (2) in a calibration curve as a standard of an International Unit sample enclosed with Neo, Amylase Test “Daiichi”. […]

Regarding `O.O.O.O.O=BO[O-].[Na+]` [Sodium perborate•4H2O, sodium perborate.4H2O], the “Relative activity (%)” value was 140%. Consider `O.[Na+].[O-][Cl+3]([O-])([O-])[O-]` [Sodium perchlorate•1H2O, sodium perchlorate.1H2O], for which the “Relative activity (%)” value amounted to 120%.
